Patent publication US8846000B2, “Radiolabeled PDE10 inhibitors” (Merck Sharp & Dohme Corp., priority 2009, dated 2014)

target: human PDE10A2 (Homo sapiens (Human), UniProt Q9Y233); assay: PDE10 fluorescence polarization (IMAP FP) assay; assay type: biochemical; conditions: inhibition of FAM-labeled cAMP hydrolysis, apparent inhibition constant
Description: The activity of the compounds in accordance with the present invention as PDE10 inhibitors may be readily determined without undue experimentation using a fluorescence polarization (FP) methodology well known in the art (Huang, W., et al., J. Biomol Screen, 2002, 7: 215).
In a typical experiment the PDE10 inhibitory activity of the compounds of the present invention was determined in accordance with the following experimental method. PDE10A2 was amplified from human fetal brain cDNA (Clontech, Mountain View, Calif.) using a forward primer corresponding to nucleotides 56-77 of human PDE10A2 (Accession No. AF127480, Genbank Identifier 4894716), containing a Kozak consensus sequence, and a reverse primer Corresponding to nucleotides 2406-2413 of human PDE100A2 (Accession No. AF127480, Genbank Identifier 4894716). Amplification with Easy-A polymerase (Stratagene, La Jolla, Calif.) was 95° C. for 2 minutes followed by thirty three cycles of 95° C. for 40 seconds, 55° C. for 30 seconds, and 72° C. for 2 minutes 48 seconds. Final extension was 72° C. for 7 minutes. The PCR product was TA cloned into pcDNA3.2-TOPO (Invitrogen, Carlsbad, Calif.) according to standard protocol.
AD293 cells with 70-80% confluency were transiently transfected with human PDE10A2/pcDNA3.2-TOPO using Lipofectamine 2000 according to manufacturer specifications (Invitrogen, Carlsbad, Calif.). Cells were harvested 48 hours post-transfection and lysed by sonication (setting 3, 10×5 sec pulses) in a buffer containing 20 mM HEPES, 1 mM EDTA and protease inhibitor cocktail (Roche). Lysate was collected by centrifugation at 75,000×g for 20 minutes. Supernatant containing the cytoplasmic fraction was used for evaluation of PDE100A2 activity.
The fluorescence polarization assay for cyclic nucleotide phosphodiesterases was performed using an IMAP® FP kit supplied by Molecular Devices, Sunnyvale, Calif. (product #R8139). IMAP® technology has been applied previously to phosphodiesterase assays (Huang, W., et al., J. Biomol Screen, 2002, 7: 215). Assays were performed at room temperature in 384-well microtiter plates with an incubation volume of 20.2 μL. Solutions of test compounds were prepared in DMSO and serially diluted with DMSO to yield 8 μL of each of 10 solutions differing by 3-fold in concentration, at 32 serial dilutions per plate. 100% inhibition is determined using a known PDE10 inhibitor, which can be any compound that is present at 5,000 times its Ki value in the assay described as follows, such as papaverine (see Siuciak, et al. Neuropharmacology (2006) 51:386-396; Becker, et al. Behav Brain Res (2008) 186(2):155-60; Threlfell, et al., J Pharmacol Exp Ther (2009) 328(3):785-795), 2-{4-[pyridin-4-yl-1-(2,2,2-trifluoroethyl)-1H-pyrazol-3-yl]phenoxymethyl}quinoline succinic acid or 2-[4-(1-methyl-4-pyridin-4-yl-1H-pyrazol-3-yl)-phenoxymethyl]quinoline succinic acid (see Schmidt, et al. J Pharmacol Exp Ther (2008) 325:681-690; Threlfell, et al., J Pharmacol Exp Ther (2009) 328(3): 785-795). 0% of inhibition is determined by using DMSO (1% final concentrations).
A Labcyte Echo 555 (Labcyte, Sunnyvale, Calif.) is used to dispense […] from each well of the titration plate to the 384 well assay plate. A solution of enzyme (1/1600 dilution from aliquots; sufficient to produce 20% substrate conversion) and a separate solution of FAM-labeled cAMP PDE from Molecular Devices (product #R7506), at a final concentration of 50 nM are made in the assay buffer (10 mM Tris HCl, pH 7.2, 10 mM MgCl2, 0.05% NaN3 0.01% Tween-20, and 1 mM DTT). The enzyme and the substrate are then added to the assay plates in two consecutive additions of 10 μL, and then shaken to mix. The reaction is allowed to proceed at room temperature for 30 minutes. A binding solution is then made from the kit components, comprised of 80% Solution A, 20% Solution B and binding reagent at a volume of 1/600 the total binding solution. […]

Sequence of human PDE10A2 (Q9Y233 267-1055): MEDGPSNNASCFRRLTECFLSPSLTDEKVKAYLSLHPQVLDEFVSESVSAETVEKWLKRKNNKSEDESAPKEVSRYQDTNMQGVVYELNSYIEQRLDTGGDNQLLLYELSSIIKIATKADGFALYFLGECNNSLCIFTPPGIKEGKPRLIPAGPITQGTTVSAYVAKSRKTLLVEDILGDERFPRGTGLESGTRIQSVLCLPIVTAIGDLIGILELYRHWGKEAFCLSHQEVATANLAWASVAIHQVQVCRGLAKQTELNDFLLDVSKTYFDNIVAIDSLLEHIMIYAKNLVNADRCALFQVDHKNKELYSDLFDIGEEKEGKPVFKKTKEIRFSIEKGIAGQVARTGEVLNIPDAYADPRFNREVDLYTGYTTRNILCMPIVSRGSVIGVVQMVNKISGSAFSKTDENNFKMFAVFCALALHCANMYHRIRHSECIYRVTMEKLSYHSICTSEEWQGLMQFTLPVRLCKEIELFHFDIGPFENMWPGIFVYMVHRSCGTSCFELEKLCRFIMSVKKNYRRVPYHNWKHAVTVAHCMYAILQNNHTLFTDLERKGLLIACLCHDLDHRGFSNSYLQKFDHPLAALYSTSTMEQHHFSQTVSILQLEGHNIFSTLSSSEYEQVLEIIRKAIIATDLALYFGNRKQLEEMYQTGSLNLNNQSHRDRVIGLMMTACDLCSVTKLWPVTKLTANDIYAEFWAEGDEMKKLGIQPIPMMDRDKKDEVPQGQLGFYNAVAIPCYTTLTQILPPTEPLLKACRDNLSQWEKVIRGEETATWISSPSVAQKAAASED

Row | Structure (SMILES) | Ki
1 | COc1ccc2c(=O)n(-c3ccc4cc[nH]c4c3)c(CCN3C(=O)c4cccc(OC(C)C)c4C3=O)nc2c1 [1-13, 2-{2-[3-(1H-indol-6-yl)-7-methoxy-4-oxo-3,4-dihydroquinazolin-2-yl]ethyl}-4-isopropoxy-1H-isoindole-1,3(2H)-dione] | 0.055 nM
2 | CC(C)Oc1cccc2c1C(=O)N(CCc1nc3ccccc3c(=O)n1C1CCCCC1)C2=O [1-25, 2-[2-(3-cyclohexyl-4-oxo-3,4-dihyroquinazolin-2-yl)ethyl]-4-(propan-2-yloxy)-1H-isoindole-1,3(2H)-dione] | 11 nM
3 | COc1cccc2c1C(=O)N(CCc1nc3ccccc3c(=O)n1-c1ccc3cnn(C)c3c1)C2=O [1-23, 4-methoxy-2-{2-[3-(1-methyl-1H-indazol-6-yl)-4-oxo-3,4-dihydroquinazolin-2-yl]ethyl}-1H-isoindole-1,3(2H)-dione] | 0.95 nM
4 | CC(C)Oc1cccc2c1C(=O)N(CCc1nc3ccccc3c(=O)n1-c1ccc(OCCF)cc1)C2=O [1-12, 2-(2-{3-[4-(2-fluoroethoxy)phenyl]-4-oxo-3,4-dihydroquinazolin-2-yl}ethyl)-4-isopropoxy-1H-isoindole-1,3(2H)-dione] | 0.19 nM
5 | O=C1c2ccccc2C(=O)N1CCc1nc2ccccc2c(=O)n1-c1cccc(-c2ccccc2)c1 [1-2, 2-[2-(3-biphenyl-3-yl-4-oxo-3,4-dihydroquinazolin-2-yl)ethyl]-1H-isoindole-1,3(2H)-dione] | 14 nM
6 | COc1ccc(-n2c(CCN3C(=O)c4cccc(OC)c4C3=O)nc3cc(C)ccc3c2=O)cc1 [1-8, 4-methoxy-2-{2-[3-(4-methoxyphenyl)-7-methyl-4-oxo-3,4-dihydroquinazolin-2-yl]ethyl}-1H-isoindole-1,3(2H)-dione] | 1.2 nM
7 | COc1ccc(-n2c(CCN3C(=O)c4cccc(C#N)c4C3=O)nc3ccccc3c2=O)cc1 [1-6, 2-{2-[3-(4-methoxyphenyl)-4-oxo-3,4-dihydroquinazolin-2-yl]ethyl}-1,3-dioxoisindoline-4-carbonitrile] | 33 nM
8 | COc1ccc(-n2c(CCN3C(=O)c4cccc(OCC(F)(F)F)c4C3=O)nc3nc(C)ccc3c2=O)cc1 [1-22, 2-{2-[3-(4-methoxyphenyl)-7-methyl-4-oxo-3,4-dihydropyrido[2,3-d]pyrimidin-2-yl]ethyl}-4-(2,2,2-trifluoroethoxy)-1H-isoindole-1,3(2H)-dione] | 2.08 nM
